Reference: patent publication US5006527A, “Pharmacologically active N-(4-piperidinyl) bicyclic condensed 2-imidazolamine derivatives” (Janssen Pharmaceutica N.V., priority 1989, dated 1991)

Each molecule was assayed on compound 48/80-induced lethality (assay: Protection of rats from compound 48/80-induced lethality). Conditions: Rattus norvegicus; test compound subcutaneously or orally (route not specified per compound); compound 48/80 0.5 mg/kg i.v. one hour after treatment; survival after 4 hours; protection of 50% of animals; read-out: compound 48/80 lethality test in rate-ED50.
Format: in vivo, rat (male, inbred Wistar strain)
Method: Protection of rats from compound 48/80-induced lethality
The protection from compound 48/80-induced lethal circulatory collapse appears to be a simple way of evaluating quantitatively the antihistaminic activity of test compounds. Male rats of an inbred Wistar strain, weighting 240-260 g were used in the experiment. After overnight starvation the rats were transferred to conditioned laboratories (temp. =21±1° C., relative humidity =65±5%).
The rats were treated subcutaneously or orally with a test compound or with the solvent (NaCl solution, 0.9%). One hour after treatment there was injected intravenously compound 48/80, freshly dissolved in water, at a dose of 0.5 mg/kg (0.2 ml/100 g of body weight). In control experiments, wherein 250 solvent-treated animals were injected with the standard dose of compound 48/80, not more than 2.8% of the animals survived after 4 hours. Survival after 4 hours is therefore considered to be a safe criterion of a protective effect of drug administration. Said ED50 -values are the values in mg/kg body weight at which the tested compounds protect 50% of the tested animals against compound 48/80-inducedlethality.

| Structure (SMILES) | ED50 |
| --- | --- |
| Cc1ccc(Cn2c(NC3CCN(CC(O)COc4ccccc4)CC3)nc3cccnc32)o1 (stereo not shown) [Compound 26] | 0.04 mg/kg |
| CNC(=O)NCCN1CCC(Nc2nc3ccccc3n2Cc2ccc(C)o2)CC1 [Compound 40, N-methyl-N'-[2-[4-[[1-[(5-methyl-2-furanyl)methyl]-1H-benzimidazol-2-yl]amino]-1-piperidinyl]ethyl]urea] | 0.02 mg/kg |
| CCn1nnn(CCN2CCC(Nc3nc4cccnc4n3Cc3ccc(C)o3)CC2)c1=O [Compound 10] | 0.04 mg/kg |
| Cc1occc1Cn1c(NC2CCN(CCn3c(=O)[nH]c4ccccc43)CC2)nc2cccnc21 [Compound 53] | 0.04 mg/kg |
| Cc1coc(Cn2c(NC3CCN(CCn4c(=O)[nH]c5ccccc54)CC3)nc3cccnc32)c1 [Compound 63] | 0.04 mg/kg |
| CCc1ccc(Cn2c(NC3CCN(C)CC3)nc3cccnc32)o1 [Compound 29] | 0.04 mg/kg |
| CCOCCN1CCC(Nc2nc3cccnc3n2Cc2ccc(C)o2)CC1 [Compound 7] | 0.02 mg/kg |
| Cc1ccc(Cn2c(NC3CCN(C/C=C/c4ccccc4)CC3)nc3cccnc32)o1 [Compound 6] | 0.04 mg/kg |
| CCCCCCN1CCC(Nc2nc3cccnc3n2Cc2ccc(C)o2)CC1 [Compound 39] | 0.04 mg/kg |
| CC(=O)CCCN1CCC(Nc2nc3cccnc3n2Cc2ccc(C)o2)CC1 [Compound 18] | 0.01 mg/kg |
| Cc1occc1Cn1c(NC2CCN(C)CC2)nc2cccnc21 [Compound 36] | 0.04 mg/kg |
| CCCCN1CCC(Nc2nc3cccnc3n2Cc2ccc(C)o2)CC1 [Compound 37] | 0.02 mg/kg |
| Cc1ccc(Cn2c(NC3CCN(C)CC3)nc3cccnc32)o1 [Compound 1] | 0.005 mg/kg |
| C=CCN1CCC(Nc2nc3cccnc3n2Cc2ccc(C)o2)CC1.O=C(O)/C=C/C(=O)O.O=C(O)/C=C/C(=O)O [Compound 5, 3-[(5-methyl-2-furanyl)methyl]-N-[1-(2-propenyl)-4-piperidinyl]-3H-imidazo-[4,5-b]pyridin-2-amine (E)-2-butenedioate(1:2)] | 0.005 mg/kg |
| Cc1ccc(Cn2c(NC3CCN(CCc4cccs4)CC3)nc3cccnc32)o1 [Compound 15] | 0.04 mg/kg |
| CCn1nnn(CCN2CCC(Nc3nc4ccccc4n3Cc3ccc(C)o3)CC2)c1=O.O=C(O)C(=O)O.O=C(O)C(=O)O [Compound 22, 1-ethyl-1,4-dihydro-4-[2-[4-[[1-[(5-methyl-2-furanyl)methyl]-1H-benzimidazol-2-yl]-amino]-1-piperidinyl]ethyl]-5H-tetrazol-5-one ethanedioate(1:2)] | 0.04 mg/kg |
| Cc1ccc(Cn2c(NC3CCN(CCCOc4ccccc4)CC3)nc3cccnc32)o1 [Compound 8] | 0.04 mg/kg |
| CCN1CCC(Nc2nc3ccccc3n2Cc2ccc(C)o2)CC1 [Compound 11] | 0.01 mg/kg |
| Cc1coc(Cn2c(NC3CCN(C)CC3)nc3cccnc32)c1 [Compound 62] | 0.005 mg/kg |
| CCCCCN1CCC(Nc2nc3cccnc3n2Cc2ccc(C)o2)CC1 [Compound 42] | 0.04 mg/kg |
| CCN1CCC(Nc2nc3cccnc3n2Cc2ccc(C)o2)CC1.O=C(O)/C=C/C(=O)O.O=C(O)/C=C/C(=O)O [Compound 4, N-(1-ethyl-4-piperidinyl)-3-[(5-methyl-2-furanyl)methyl]-3H-imidazo[4,5-b]-pyridin-2-amine (E)-2-butenedioate(1:2)] | 0.0025 mg/kg |
| Cc1ccc(Cn2c(NC3CCN(CCn4c(=O)[nH]c5ccccc54)CC3)nc3cccnc32)o1 [Compound 9] | 0.02 mg/kg |
| CC(=O)CCN1CCC(Nc2nc3cccnc3n2Cc2ccc(C)o2)CC1 [Compound 41] | 0.01 mg/kg |
| Cc1ccc(Cn2c(NC3CCN(CCCC(=O)c4ccc(F)cc4)CC3)nc3cccnc32)o1 [Compound 46] | 0.04 mg/kg |
| Cc1ccc(Cn2c(NC3CCN(CCCn4c(=O)[nH]c5ccccc54)CC3)nc3cccnc32)o1 [Compound 38] | 0.02 mg/kg |
| Cc1ccoc1Cn1c(NC2CCN(C)CC2)nc2cccnc21 [Compound 56] | 0.04 mg/kg |
| COc1ccc(CCN2CCC(Nc3nc4cccnc4n3Cc3cc(C)co3)CC2)cc1 [Compound 64] | 0.04 mg/kg |
| COc1ccc(CCN2CCC(Nc3nc4ccccc4n3Cc3ccc(C)o3)CC2)cc1 [Compound 13] | 0.04 mg/kg |
